In the oligonucleotide strings, read from the 5' end, every base follows the letter of its sugar. An asterisk marks phosphorothioate; unmarked linkages are phosphodiester. Other units and linkages are bracketed, terminal groups are in braces. A string of capitals states the bases alone. e = 2'-O-(2-methoxyethyl) (MOE); [5mC] = 5-methylcytosine; d = 2'-deoxy (DNA)
Test system: human Factor 7 mRNA
Assay: Inhibition of human Factor 7 mRNA by 2-10-2 MOE shortmers in HepB3 cells, electroporation, 1,000 nM
Assay type: cell-based
Details: electroporation, 1,000 nM oligonucleotide, approximately 24 hours, relative to untreated control cells
In short: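 14-mer 2-10-2 2′-MOE gapmers, full phosphorothioate, 5-methylcytidines, electroporated at 1,000 nM into HepB3 cells (20,000/well). After ~24 h, mRNA quantified by real-time RT-PCR, normalized to RIBOGREEN total RNA; percent inhibition relative to untreated cells.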

Substance | % inhibition of human Factor 7 mRNA
435779 (antisense eT*eG*dA*dG*d[5mC]*dG*d[5mC]*dG*dG*dA*dA*dG*eA*eA) [compound 435779] | 50%
435780 (antisense eG*eG*dA*dG*dG*dG*dA*d[5mC]*dG*dA*d[5mC]*d[5mC]*eT*eT) [compound 435780] | 28%
435781 (antisense eA*e[5mC]*d[5mC]*dA*d[5mC]*dG*d[5mC]*dG*dG*dT*dG*dG*eT*eG) [compound 435781] | 0%
435782 (antisense e[5mC]*eG*dT*dG*d[5mC]*dG*d[5mC]*dT*d[5mC]*dA*dG*d[5mC]*eT*e[5mC]) [compound 435782] | 36%
435783 (antisense eA*eA*dA*d[5mC]*d[5mC]*dG*dG*d[5mC]*dA*dT*dG*d[5mC]*eG*e[5mC]) [compound 435783] | 49%
435784 (antisense e[5mC]*e[5mC]*dT*dA*dA*dG*dT*dG*dT*dG*d[5mC]*dT*eT*eT) [compound 435784] | 17%
435785 (antisense eA*eG*d[5mC]*dT*dT*d[5mC]*dT*d[5mC]*dA*d[5mC]*d[5mC]*dA*e[5mC]*eG) [compound 435785] | 46%
435786 (antisense eA*eG*dG*dT*dG*dA*d[5mC]*d[5mC]*d[5mC]*dG*dT*dG*eA*eG) [compound 435786] | 68%
435787 (antisense eG*eA*dG*dT*dG*dT*dG*dA*dG*dG*d[5mC]*dT*eT*e[5mC]) [compound 435787] | 34%
435788 (antisense e[5mC]*e[5mC]*dT*dG*dT*dG*dA*dG*dT*dG*dT*dG*eA*eG) [compound 435788] | 20%
435789 (antisense e[5mC]*eA*dT*dG*dT*dT*dA*dG*d[5mC]*d[5mC]*dT*dT*eT*eG) [compound 435789] | 3%
435790 (antisense eA*eT*dG*dA*d[5mC]*d[5mC]*dA*dT*d[5mC]*d[5mC]*dT*d[5mC]*eA*eA) [compound 435790] | 1%
435791 (antisense eA*eT*dG*dA*dG*dA*dA*dA*dT*dG*d[5mC]*dT*eT*eT) [compound 435791] | 0%
435792 (antisense eT*eG*d[5mC]*dT*dG*dA*dA*dG*dA*dA*dA*d[5mC]*eT*eG) [compound 435792] | 9%
435793 (antisense eT*eG*d[5mC]*dA*dG*dT*dA*dG*d[5mC]*dA*dG*dA*eT*eG) [compound 435793] | 27%
435794 (antisense eG*eA*dG*dG*dT*dA*d[5mC]*dA*d[5mC]*dA*dG*dG*e[5mC]*eT) [compound 435794] | 26%
435795 (antisense eA*e[5mC]*dA*d[5mC]*d[5mC]*d[5mC]*dG*dA*dG*dG*dT*dT*e[5mC]*eA) [compound 435795] | 66%
435796 (antisense eT*eG*dA*d[5mC]*d[5mC]*dA*d[5mC]*dA*d[5mC]*dA*dT*dT*eT*e[5mC]) [compound 435796] | 30%
435797 (antisense eA*eA*dT*d[5mC]*dT*dT*dG*dG*d[5mC]*d[5mC]*d[5mC]*d[5mC]*eT*e[5mC]) [compound 435797] | 16%

Substance | % inhibition of human Factor 7 mRNA
435798 (antisense eA*eG*d[5mC]*d[5mC]*dA*dG*dA*d[5mC]*dT*dT*dT*d[5mC]*e[5mC]*eT) [compound 435798] | 54%
435799 (antisense e[5mC]*eT*dG*dG*dT*d[5mC]*d[5mC]*d[5mC]*d[5mC]*dA*dT*d[5mC]*eT*eG) [compound 435799] | 33%
435800 (antisense eG*eG*dA*d[5mC]*d[5mC]*d[5mC]*dA*dA*dA*dG*dT*dG*eG*eG) [compound 435800] | 0%
435801 (antisense e[5mC]*eG*dG*dT*dT*dG*dG*d[5mC]*d[5mC]*dA*dG*dG*e[5mC]*e[5mC]) [compound 435801] | 38%
435802 (antisense eG*eT*d[5mC]*dA*d[5mC]*d[5mC]*dT*dA*dG*dA*d[5mC]*d[5mC]*eA*eA) [compound 435802] | 61%
435803 (antisense eG*eA*dG*dA*dA*dT*dT*dG*d[5mC]*d[5mC]*d[5mC]*dA*eG*eG) [compound 435803] | 0%
435804 (antisense e[5mC]*eA*dG*dG*dG*dA*d[5mC]*dT*d[5mC]*dT*d[5mC]*dA*eG*e[5mC]) [compound 435804] | 26%
435805 (antisense eT*eG*dA*dA*dT*dT*dA*d[5mC]*dT*dG*dA*dA*e[5mC]*e[5mC]) [compound 435805] | 0%
435806 (antisense eT*eG*dA*d[5mC]*d[5mC]*d[5mC]*d[5mC]*dA*d[5mC]*dA*dG*dG*eG*eA) [compound 435806] | 7%
435807 (antisense e[5mC]*eA*dG*dT*dA*d[5mC]*dT*dT*d[5mC]*d[5mC]*d[5mC]*dA*e[5mC]*eG) [compound 435807] | 35%
435808 (antisense e[5mC]*eT*d[5mC]*dT*dG*dG*dA*d[5mC]*dA*d[5mC]*d[5mC]*dG*eG*eG) [compound 435808] | 66%
435809 (antisense e[5mC]*eT*dG*dA*d[5mC]*dA*dA*dT*dG*dT*dG*dA*eT*eG) [compound 435809] | 5%
435810 (antisense e[5mC]*eT*dG*dA*dG*dG*dG*dA*dA*dT*dG*dT*eT*eG) [compound 435810] | 1%
435811 (antisense eG*eT*dG*dG*dT*d[5mC]*dA*dA*dG*dG*dA*dT*eG*eA) [compound 435811] | 27%
435812 (antisense eG*e[5mC]*dT*dG*dA*dG*d[5mC]*dA*dG*dA*dG*dA*eT*e[5mC]) [compound 435812] | 35%
435813 (antisense eG*eG*dA*dT*dG*d[5mC]*dA*d[5mC]*dA*d[5mC]*d[5mC]*dA*eG*eG) [compound 435813] | 55%
435814 (antisense eT*eG*dA*d[5mC]*dG*dA*dG*dA*dG*dG*dA*d[5mC]*e[5mC]*eA) [compound 435814] | 31%
435815 (antisense e[5mC]*eT*d[5mC]*dT*dT*d[5mC]*d[5mC]*dG*dA*dG*d[5mC]*dA*eG*e[5mC]) [compound 435815] | 59%
435816 (antisense eT*e[5mC]*d[5mC]*dA*dA*dA*dG*dG*dA*d[5mC]*dA*dA*eG*eG) [compound 435816] | 4%

Substance | % inhibition of human Factor 7 mRNA
435817 (antisense e[5mC]*eT*dG*dA*dG*d[5mC]*dT*dT*dG*dG*d[5mC]*dA*e[5mC]*e[5mC]) [compound 435817] | 39%
435818 (antisense eG*eT*d[5mC]*dA*dT*d[5mC]*d[5mC]*dT*dT*dG*dT*d[5mC]*eT*eG) [compound 435818] | 43%
435819 (antisense eT*eT*dT*dG*dT*d[5mC]*d[5mC]*dA*dG*dT*dA*dA*eG*eA) [compound 435819] | 1%
435820 (antisense e[5mC]*eA*dT*d[5mC]*d[5mC]*dT*dA*dG*dT*d[5mC]*dA*d[5mC]*eT*eG) [compound 435820] | 19%
435821 (antisense eA*eG*dT*d[5mC]*dA*dG*dT*dA*d[5mC]*dA*dG*dA*e[5mC]*eA) [compound 435821] | 0%
435822 (antisense e[5mC]*e[5mC]*dA*dG*dG*dA*dG*d[5mC]*d[5mC]*dT*dT*dT*eA*e[5mC]) [compound 435822] | 37%
435823 (antisense eT*eG*dA*dG*dT*d[5mC]*d[5mC]*d[5mC]*dA*dG*dG*d[5mC]*eT*eG) [compound 435823] | 41%
435824 (antisense e[5mC]*e[5mC]*dT*dA*dA*dA*dG*dA*dT*dG*dA*dA*eT*e[5mC]) [compound 435824] | 21%
435825 (antisense e[5mC]*eT*dG*dG*dT*dT*dT*dT*dG*dG*dA*dG*eG*eA) [compound 435825] | 0%
435826 (antisense eA*eA*dG*dT*dG*dG*d[5mC]*dT*dG*dG*d[5mC]*dT*eG*eA) [compound 435826] | 27%
435827 (antisense eT*e[5mC]*dA*dG*dA*dA*dA*dG*dA*dT*dG*d[5mC]*eA*eG) [compound 435827] | 5%
435828 (antisense eG*eA*d[5mC]*d[5mC]*dT*dG*d[5mC]*d[5mC]*d[5mC]*dA*dT*dT*eT*eT) [compound 435828] | 0%
435829 (antisense eG*eG*dG*dT*dA*dG*dA*d[5mC]*d[5mC]*d[5mC]*dT*d[5mC]*eA*eG) [compound 435829] | 18%
435830 (antisense eT*eG*dA*dT*dT*dT*dT*dG*d[5mC]*dA*dA*dA*eG*eA) [compound 435830] | 0%
435831 (antisense eG*eA*dT*d[5mC]*dT*dT*d[5mC]*dA*d[5mC]*dA*dT*dA*eG*e[5mC]) [compound 435831] | 51%
435832 (antisense eT*eG*d[5mC]*dT*d[5mC]*dA*dG*dA*d[5mC]*d[5mC]*dT*dG*eG*e[5mC]) [compound 435832] | 70%
435833 (antisense eA*eG*dA*d[5mC]*dA*d[5mC]*dT*dT*dG*dA*dG*dA*eG*e[5mC]) [compound 435833] | 24%
435834 (antisense eT*eG*dA*d[5mC]*dA*dG*d[5mC]*dA*d[5mC]*dG*dA*dA*eG*e[5mC]) [compound 435834] | 20%
